Publication PMC11945201, “Enhancing the Oral Bioavailability of Glutathione Using Innovative Analogue Approaches” (Pharmaceutics, 2025)
Converted amounts (≈) assume the structure as drawn.

How the values were obtained:
[1] = system: γ-glutamyl transferase (GGT); assay type: in vitro ADME, equine; conditions: horse, 100 μgmL^−1, pH 9
Experimental: Each compound and GSH (100 μgmL^−1, 0.0315 molL^−1) was added to each reaction vessel containing phosphate buffer solution (800 μL, pH 9.0). The reaction vessels were incubated at 37 °C with shaking for the entire duration of the experiment. Reaction was initiated by the addition of GGT enzyme solution (100 μL, 10 UmL^−1). […] The degradation rate of the novel compounds analysed by HPLC were compared with that of GSH. […] A GGT degradation less than 50% was considered resistance to GTT activity.

[2] = system: glutathione S-transferase (GST); experiment: Glutathione S-transferase assay (CDNB conjugation, absorbance 340 nm); assay type: biochemical, equine; conditions: for GST Activity > 50%: yes/no, compared to GSH, more than 50% considered retaining GST activity
Experimental: The degree of conjugation of GSH or novel compounds to a substrate catalysed by GST can be monitored […] by conjugation with the substrate 1-chloro-2,4-dinotrobenzene (CDNB) to a thiol group. Successful conjugation results in the formation of a S-DNB conjugate, which strongly absorbs at 340 nm.
A stock solution of GSH and novel compounds (0.0315 mmolL^−1) were prepared. GSH or novel compounds (26 µL) were added to a mixture of pH = 7.4 DPBS (170 µL), CDNB (2 µL, 100 mmolL^−1), and GST enzyme (2 µL, 25 UmL^−1) to initiate the reaction. The rate of increase in absorbance at 340 nm was monitored every minute over a 10 min period. The rate of increase in absorbance at 340 nm was calculated by the following equation (Equation (1)), where ΔA340 is the change in absorption at 340 nm per minute:(1) ΔA340=A340(final)–A340(initial)/t.
The rate of increase in absorption at 340 nm was correlated to the specific activity of GST using the following equation (Equation (2)):(2) ΔA340×V/εmM ×Venz=Specific activity of GST, where the extinction coefficient εmM for a 96-well plate of a path length of 0.5 cm is 5.3 mmolL^−1cm^−1; Venz is the volume of the GST enzyme sample used (2 µL); and V is the total volume used ([…]). […] A GST activity more than 50% was considered as retaining GST activity.

[3] = Pharmacokinetic study after IV injection or oral gavage; assay type: in vivo, male Sprague Dawley rat; conditions: for AUC / bioavailability / half-life: male, plasma; for AUC / bioavailability: Sprague-Dawley; for AUC / half-life: 75 mg per rat; for AUC: AUC0-48, mean ± SD, n = 4; for bioavailability: rat, po, 75 mg; for half-life: read-out: plasma t½
Experimental: Pharmacokinetic studies were conducted using a male Sprague Dawley rat model. […] The animal experiments were performed in China, complying with the guide for care and use of laboratory animals. […] The collected blood samples were centrifuged at 7104× g for 5 min, and the plasma was stored at -70 °C until analysis. The plasma protein was precipitated by the addition of 1 mL of ACN, which was then vortexed for 1 min and centrifuged at 30,065× g for 15 min. […] The 1.70 concentration for each group (oral/IV) was determined using a modified LC-MS method adapted from the GSH protocol. Briefly, blood samples containing 1.70 were analysed separately by positive mode LC-MS using an Agilent 1100 series HPLC (Agilent Technology, Inc., Santa Clara, CA, USA) coupled with an Agilent 6530 Accurate Mass Q-TOF LC/MS (Agilent Technology, Inc., Santa Clara, CA, USA), which was equipped with a dual jet stream electrospray ionisation source. Chromatographic separation was achieved on a Zorbax SB C18 column (5 μm, 3 × 150 mm) maintained at 40 °C. […] The flow rate was set at 0.5 mL/min with an injection volume of 8 μL. Mass spectrometer settings were configured for m/z transitions of 319.1→215.2, with a fragmentor voltage of 180 V. The instrument parameters were as follows: a gas flow of 10 L/min, a gas temperature of 275 °C, a sheath gas flow of 12 L/min, a sheath gas temperature of 300 °C, a nebuliser pressure of 40 psi, a capillary voltage of 3000 V, and a nozzle voltage of 500 V. This method was developed and validated through triplicate linearity studies at concentrations ranging from 30 to 5000 ng/mL according to the International Conference on Harmonization (ICH) guidelines. Data were acquired and analysed using Agilent Mass Hunter Software (version A.02.17).

[4] = UV rescue of UVA-irradiated fibroblast cells (MTT); assay type: cell-based; conditions: peptide 0.0325 mmolL^−1, 24 h, no UV, mean ± SD, n = 6, read-out: % Cell Viability (no UV)
Experimental: Fibroblast cells were seeded into 96-well plates at a density of 10,000 cells per well determined by cell counting. Cells were allowed to settle and attach for 24 h before the addition of peptides. The supernatant in each well was discarded, and the attached cells were washed using serum-free DMEM twice. One group of cells was exposed to UVA under a UV lamp for 1 h. A second group of cells was not exposed to UV irradiation. The supernatant was removed from each well of both groups and replaced with peptide (100 μL, 0.0325 mmolL^−1), which was then dissolved in Fluorobite^TM DMEM. Each plate, including 2 wells of both groups was also incubated with serum-free DMEM (positive control) and 2% Triton-X (negative control) for 24 h. The supernatant in each well of both groups was then discarded and the cells washed using PBS. MTT (100 μL, 6 mmolL^−1) that was dissolved in HBSS was then added to each well and incubated for 2 h for MTT conversion into formazan. The supernatant was then discarded, and the cells were washed using PBS to remove any residual MTT and formazan that were not attached to the cellular mitochondria. Formazan was dissolved in DMSO (50 μL), and the absorbance was measured on a microplate reader at a wavelength of 570 nm.

[5] = cited from earlier work
[6] = physchem
Experimental: To investigate the potential peptide degradation during storage and when in a cell culture medium, the stability of GSH in NaOH (0.1 molL^−1, pH 13.0), HBSS (pH 7.4), and HCl (0.1 molL^−1, pH 1.0) were investigated. GSH (100 μgmL^−1) was incubated at 37 °C with the above conditions for 24 h or until at least 20% of peptide was degraded. The samples were withdrawn at the time intervals 0, 1, 10, 30, 60, 120, 240, 480, and 1440 min and mixed with equal volume of ice-cold HCl (0.2 molL^−1) until analysis by HPLC. Stability was repeated until three results within <5% SD were obtained.

| SMILES | % Degradation by GGT [1] [%] | activity/efficacy with GST enzyme (in words) ([2]; qualitative analysis) | GST Activity > 50% [2] | fold increase in oral bioavailability compared to native GSH ([3]; Sprague Dawley rats) [fold] | fold increase in plasma t½ compared to native GSH ([3]; Sprague Dawley rats) [fold] | AUC ([3]; IV) [ng·h/mL] | AUC ([3]; oral) [ng·h/mL] | bioavailability [3] [%] | half-life ([3]; Sprague Dawley rats) [h] | viability at 24 h, 0.0325 mmolL^−1 [4] [%] | water solubility [5] [mg/mL] | half-life at 100 μgmL^−1 ([6]; HBSS buffer, pH 7.4) [h] | half-life at 100 μgmL^−1 ([6]; aqueous HCl solution, pH 2) [h] | half-life at 100 μgmL^−1 ([6]; aqueous NaOH solution, pH 12) [h] |
| --- | --- | --- | --- | --- | --- | --- | --- | --- | --- | --- | --- | --- | --- | --- |
| CN(C(=O)CC[C@H](N)C(=O)O)[C@@H](CS)C(=O)NCC(=O)O [Compound 1.70] | 11.7 | did not | ✔ (✔: yes) | 16.1 | 16.8 | 727 ± 42 | 82 ± 8 | 11.3 ± 1.2 | 0.56 | 108 ± 9.4 |  |  |  |  |
| N[C@@H](CCC(=O)N[C@@H](CS)C(=O)NCC(=O)O)C(=O)O [GSH, Glutathione] |  |  | ✔ (✔: yes) |  |  | 5350 ± 2480 | 36 ± 8 | 0.7 ± 0.1 | 0.0333 |  | 292.5 (≈ 952 mM) | 46.3 ± 2.3 | 203 ± 10.1 | 2.5 ± 0.1 |
